In patent publication US20250122239A1 (K BENHAVNS UNIVERSITET, published 2025):
Ends that are not written are not given here.

Assays:
[1] = test system: lean mice; assay: food intake in chow fed lean mice, shortened GLP-1-NT combination peptides (Example 9); format: in vivo; conditions: 100 nmol/kg, single SC injection, chow fed lean mice fasted overnight
Procedure: Chow fed lean mice fasted overnight were injected once SC in the beginning of the light cycle and food returned. Food intake measured continuously after injection in an indirect calorimetry system. Food intake was analysed using repeated measures two-way ANOVA followed by a Tukey's post hoc test.

[2] = target: human neurotensin receptor NTSR1 (pCMVhNTSR 1, transiently expressed in HEK293 cells) (human, UniProt P30989 1-418); assay: cell-based or functional assay
Sequence of human neurotensin receptor NTSR1 (pCMVhNTSR 1, transiently expressed in HEK293 cells) (P30989 whole entry): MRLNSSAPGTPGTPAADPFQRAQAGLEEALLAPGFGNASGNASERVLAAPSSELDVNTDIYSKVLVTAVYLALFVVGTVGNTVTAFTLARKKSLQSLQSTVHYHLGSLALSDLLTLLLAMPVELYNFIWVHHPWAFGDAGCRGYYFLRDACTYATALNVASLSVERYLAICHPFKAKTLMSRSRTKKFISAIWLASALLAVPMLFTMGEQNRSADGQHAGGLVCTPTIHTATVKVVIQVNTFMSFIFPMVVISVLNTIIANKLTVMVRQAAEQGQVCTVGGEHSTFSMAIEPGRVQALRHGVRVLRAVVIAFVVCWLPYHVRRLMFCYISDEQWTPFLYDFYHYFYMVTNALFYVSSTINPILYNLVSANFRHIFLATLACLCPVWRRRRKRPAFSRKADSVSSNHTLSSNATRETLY

Row | Molecule | food intake in comparison to saline [1] | inositol phosphate (IP) accumulation, LogEC50 [2]
1 | HAEFTFTSDVSSYLEGQKKGGELYENKPRRPYIL-acid (HAEFTFTSDVSSYLEGQKKGGELYENKPRRPYIL-OH) [Peptide 10] | p<0.001 peptide 10 vs. saline | –
2 | HAEGTFTSDVSSYLEGQELYENKPRRPYIL-acid (HAEGTFTSDVSSYLEGQELYENKPRRPYIL-OH) [Peptide 9] | p<0.05 peptide 9 vs. saline | –
3 | HAEGTFTSDVSSYLEGQAAKEFIAWLVKGRLYENKPRRPYIL [GLP-1/NT fusion peptide (SEQ ID NO: 45)] | – | -8.5
